The values that follow are results of earlier work, collected in patent US20180344730A1, “MEDICAMENT FOR TREATING MENTAL AND BEHAVIOURAL DISORDERS” (Sumitomo Dainippon Pharma Co., Ltd., priority 2012, published 2018).

Data set [1] has as its target T1, noradrenaline α2C receptors (Homo sapiens, UniProt P18825).
T1 sequence (P18825 1-462): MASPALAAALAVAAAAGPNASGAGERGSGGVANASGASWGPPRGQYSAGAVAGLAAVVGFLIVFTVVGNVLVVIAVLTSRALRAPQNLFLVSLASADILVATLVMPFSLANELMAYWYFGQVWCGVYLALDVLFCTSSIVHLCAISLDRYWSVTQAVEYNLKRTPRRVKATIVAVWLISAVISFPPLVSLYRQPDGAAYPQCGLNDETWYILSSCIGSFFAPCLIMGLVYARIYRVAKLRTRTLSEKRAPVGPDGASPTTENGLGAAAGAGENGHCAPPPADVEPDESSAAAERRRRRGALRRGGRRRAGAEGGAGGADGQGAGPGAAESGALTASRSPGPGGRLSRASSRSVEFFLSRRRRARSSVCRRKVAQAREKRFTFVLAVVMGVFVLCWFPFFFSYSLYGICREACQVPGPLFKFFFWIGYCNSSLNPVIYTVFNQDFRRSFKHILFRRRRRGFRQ

The next data set concerns the target T2, muscarinic M1 receptors (Homo sapiens, UniProt P11229).
T2 sequence (P11229 1-460): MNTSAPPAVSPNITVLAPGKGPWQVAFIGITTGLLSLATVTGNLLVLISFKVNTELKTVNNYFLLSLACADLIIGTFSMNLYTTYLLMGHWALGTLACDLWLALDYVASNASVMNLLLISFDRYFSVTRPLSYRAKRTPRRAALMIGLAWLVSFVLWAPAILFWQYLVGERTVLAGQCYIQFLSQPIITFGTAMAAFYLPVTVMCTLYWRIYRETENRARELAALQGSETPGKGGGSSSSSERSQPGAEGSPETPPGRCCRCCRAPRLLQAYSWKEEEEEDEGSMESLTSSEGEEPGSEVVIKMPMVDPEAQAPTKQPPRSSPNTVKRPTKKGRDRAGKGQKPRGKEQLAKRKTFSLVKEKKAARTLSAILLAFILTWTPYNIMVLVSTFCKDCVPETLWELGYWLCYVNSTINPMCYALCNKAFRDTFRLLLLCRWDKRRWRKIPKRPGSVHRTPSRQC

The target of another data set is dopamine D2 receptors (Homo sapiens, UniProt P14416).
The target of data set [2] is T3, serotonin 5-HT1A receptors (Homo sapiens, UniProt P08908).
T3 sequence (P08908 1-422): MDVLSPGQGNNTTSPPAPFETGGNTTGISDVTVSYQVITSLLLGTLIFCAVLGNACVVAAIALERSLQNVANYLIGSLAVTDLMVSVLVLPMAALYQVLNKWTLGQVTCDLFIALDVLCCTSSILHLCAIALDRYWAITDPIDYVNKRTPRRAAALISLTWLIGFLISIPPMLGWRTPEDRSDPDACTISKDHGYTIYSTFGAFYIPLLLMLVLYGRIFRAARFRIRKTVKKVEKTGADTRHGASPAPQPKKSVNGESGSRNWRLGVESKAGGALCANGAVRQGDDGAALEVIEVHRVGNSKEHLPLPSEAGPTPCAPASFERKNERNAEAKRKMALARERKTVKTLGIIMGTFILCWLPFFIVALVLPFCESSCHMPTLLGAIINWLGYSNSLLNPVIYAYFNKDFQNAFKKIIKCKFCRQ

The target of a further data set is histamine H1 receptors (Homo sapiens, UniProt P35367).
Data set [3] concerns the target serotonin 5-HT2A receptors (Homo sapiens, UniProt P28223).
The target in data set [4] is serotonin 5-HT7 receptors (Homo sapiens, UniProt P34969).
Chain of serotonin 5-HT7 receptors (P34969 whole entry): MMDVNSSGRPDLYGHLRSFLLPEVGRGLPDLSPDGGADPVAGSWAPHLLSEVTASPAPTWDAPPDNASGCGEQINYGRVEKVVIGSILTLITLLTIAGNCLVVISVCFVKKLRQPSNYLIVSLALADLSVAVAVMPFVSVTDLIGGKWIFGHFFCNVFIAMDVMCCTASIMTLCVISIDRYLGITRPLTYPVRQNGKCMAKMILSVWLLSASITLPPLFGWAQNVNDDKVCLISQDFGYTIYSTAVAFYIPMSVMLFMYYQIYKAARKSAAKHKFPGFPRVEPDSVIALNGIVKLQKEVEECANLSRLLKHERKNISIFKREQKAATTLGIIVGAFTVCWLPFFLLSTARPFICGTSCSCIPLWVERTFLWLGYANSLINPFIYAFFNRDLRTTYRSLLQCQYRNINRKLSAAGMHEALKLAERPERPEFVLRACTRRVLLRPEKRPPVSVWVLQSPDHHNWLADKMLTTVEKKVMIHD

Chain of dopamine D2 receptors (P14416 whole entry): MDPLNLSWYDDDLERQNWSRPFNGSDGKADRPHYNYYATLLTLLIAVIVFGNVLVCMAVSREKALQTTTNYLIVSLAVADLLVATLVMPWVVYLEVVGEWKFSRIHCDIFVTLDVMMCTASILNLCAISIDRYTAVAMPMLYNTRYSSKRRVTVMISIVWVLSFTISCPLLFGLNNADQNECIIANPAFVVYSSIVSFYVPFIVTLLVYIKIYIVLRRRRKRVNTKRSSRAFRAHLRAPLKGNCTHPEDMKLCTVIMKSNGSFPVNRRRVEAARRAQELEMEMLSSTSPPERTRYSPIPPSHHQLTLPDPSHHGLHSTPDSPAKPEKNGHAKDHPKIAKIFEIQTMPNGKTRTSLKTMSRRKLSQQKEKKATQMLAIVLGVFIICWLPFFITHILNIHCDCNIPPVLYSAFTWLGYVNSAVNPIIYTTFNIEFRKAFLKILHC
Chain of histamine H1 receptors (P35367 whole entry): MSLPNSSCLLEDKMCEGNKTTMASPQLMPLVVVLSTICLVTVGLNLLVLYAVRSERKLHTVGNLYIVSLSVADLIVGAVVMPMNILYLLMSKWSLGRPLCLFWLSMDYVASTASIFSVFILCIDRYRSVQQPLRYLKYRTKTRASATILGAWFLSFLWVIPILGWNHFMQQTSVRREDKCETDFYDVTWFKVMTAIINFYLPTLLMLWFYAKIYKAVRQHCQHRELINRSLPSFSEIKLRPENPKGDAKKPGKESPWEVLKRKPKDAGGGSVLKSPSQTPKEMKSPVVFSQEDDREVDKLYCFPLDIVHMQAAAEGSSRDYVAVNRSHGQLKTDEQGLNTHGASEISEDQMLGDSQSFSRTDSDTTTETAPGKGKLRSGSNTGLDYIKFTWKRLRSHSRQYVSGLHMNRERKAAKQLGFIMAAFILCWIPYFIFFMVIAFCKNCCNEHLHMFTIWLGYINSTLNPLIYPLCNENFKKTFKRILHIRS
Chain of serotonin 5-HT2A receptors (P28223 whole entry): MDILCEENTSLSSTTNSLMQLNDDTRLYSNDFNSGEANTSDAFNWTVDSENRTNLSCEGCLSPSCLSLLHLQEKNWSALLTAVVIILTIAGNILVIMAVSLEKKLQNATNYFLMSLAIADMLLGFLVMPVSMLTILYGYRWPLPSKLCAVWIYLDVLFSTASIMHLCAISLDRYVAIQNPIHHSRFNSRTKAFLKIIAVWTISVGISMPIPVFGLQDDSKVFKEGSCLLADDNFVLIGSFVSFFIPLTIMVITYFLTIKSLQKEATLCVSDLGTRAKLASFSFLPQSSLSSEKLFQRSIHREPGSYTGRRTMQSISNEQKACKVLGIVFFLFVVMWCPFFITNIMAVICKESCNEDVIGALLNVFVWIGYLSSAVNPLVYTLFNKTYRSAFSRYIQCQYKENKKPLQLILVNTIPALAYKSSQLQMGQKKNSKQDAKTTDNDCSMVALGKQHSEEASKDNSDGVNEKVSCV

`O=C1[C@@H]2[C@H]3CC[C@H](C3)[C@@H]2C(=O)N1C[C@@H]1CCCC[C@H]1CN1CCN(c2nsc3ccccc23)CC1` [Lurasidone, (3aR, 4S, 7R, 7aS)-2-{(1R, 2R)-2-[4-(1,2-benzisothiazol-3-yl)piperazin-1-ylmethyl]cyclo-hexylmethyl}hexahydro-4,7-methano-2H-isoindole-1,3-dione]: the “affinity for noradrenaline α2C receptors” value in data set [1] is “high affinity”. In addition, the “affinity for muscarinic M1 receptors” value at muscarinic M1 receptors is listed as “minimal to no affinity”. Also, the “affinity for dopamine D2 receptors” value at dopamine D2 receptors was “high affinity”. Further, the “affinity for serotonin 5-HT1A receptors” value in data set [2] is “high affinity”. Further, the “affinity for histamine H1 receptors” value on histamine H1 receptors is on record as “minimal to no affinity”. Further, the “affinity for serotonin 5-HT2A receptors” value in data set [3] is recorded as “high affinity”. In data set [4], the “affinity for serotonin 5-HT7 receptors” value was “high affinity”.
